System: human liver cytosol stability, half-life
Experiment: NCATS Human Liver Cytosol Stability Profiling
Conditions: higher = more stable
Experimental: Assay submitter (PI): Pranav Shah Ph.D.
NIH Center for Advancing Translational Sciences
Over the last few decades, chemists have become skilled at designing compounds that avoid cytochrome P (CYP) 450 mediated metabolism. Typical screening assays are performed in liver microsomal fractions and it is possible to overlook the contribution of cytosolic enzymes until much later in the drug discovery process. Few data exist on cytosolic enzyme-mediated metabolism and no reliable tools are available to chemists to help design away from such liabilities. In this study, we screened 1450 compounds for liver cytosol-mediated metabolic stability and extracted transformation rules that might help medicinal chemists in optimizing compounds with these liabilities. […] Matched molecular pairs analysis was performed in conjunction with qualitative-structure activity relationship modeling to identify chemical structure transformations affecting cytosolic stability. The transformation rules were prospectively validated on the test set. In addition, selected rules were validated on a diverse chemical library and the resulting pairs were experimentally tested to confirm whether the identified transformations could be generalized. The validation results, comprising nearly 250 library compounds and corresponding half-life data, are made publicly available. The datasets were also used to generate in silico classification models, based on different molecular descriptors and machine learning methods, to predict cytosol-mediated liabilities. To the best of our knowledge, this is the first systematic in silico effort to address cytosolic enzyme-mediated liabilities (Shah 2020).
Shah, P., Siramshetty, V.B., Zakharov, A.V. et al. Predicting liver cytosol stability of small molecules. J Cheminform 12, 21 (2020). https://doi.org/10.1186/s13321-020-00426-7
Compounds are classified as unstable (t 1/2 < 30 min) or stable (t 1/2 > 30 min).
1. Shah, P. et al. An Automated High-Throughput Metabolic Stability Assay Using an Integrated High-Resolution Accurate Mass Method and Automated Data Analysis Software. Drug Metab Dispos 44, 1653-1661 (2016). PMID 27417180

Compound | half-life [h]
COc1ccc(-c2[nH]nc3ncc(-c4cccc(F)c4)nc23)c(C)c1 | 1.26
Cn1ccc(NC(=O)c2ccc(-c3ncc4cnc(-c5cccc(F)c5)cn34)cc2)n1 | 0.553
COc1ccc(CN2CCC3(C2)NC(=O)c2ccccc2O3)cc1 (stereo not given) | > 2
Cc1nn2c(c1-c1ccccc1Oc1ccccc1)N(Cc1cccc(C#N)c1)CCC2 | > 2
CC(C)(C)c1coc([C@@H]2COCCN2Cc2cccc(C#N)c2)n1 | 0.943
COc1ccc(CN2CC(Oc3ccc(F)c(F)c3)C2)cc1 | 0.5
CN1CCN(C(=O)c2cc(-c3cccnc3)nc3c2cnn3C)CC1 | > 2
CCN1CCN(C(=O)c2cc(-c3ccc(F)cc3)nc3c2cnn3C)CC1 | > 2
CN(C)[C@@H]1CN(C(=O)c2ccc(C#N)cc2)C[C@H]1CO | > 2
COc1cccc(CN2CCOC[C@H](O)C2)c1 | 0.47
COc1cncc(Nc2ncc(-c3cccc(F)c3)c3c2OCC3)c1 | 1.34
Fc1cccc(-c2cnc([C@@H]3COCCN3Cc3cnc[nH]3)[nH]2)c1 | 0.988
O=C(Nc1ncc(-c2cccc(F)c2)c2c1OCC2)c1ccncc1 | > 2
CNC(=O)[C@@H]1CN(C(=O)c2cccc(OC)c2)C[C@H]1COC | > 2
N#Cc1ccc(CN2CCC(N3CCOC3=O)CC2)cc1 | > 2
COc1ccc(CN2CCC3(COc4ccccc4C(=O)N3)C2)cc1 (stereo not given) | 0.578
COc1ccc(CN2CCC3(CC2)CC(=O)c2ccccc2O3)cc1 | > 2
COc1ccc(CN2CC(Oc3ccc(F)cc3C)C2)cc1 | 0.35
CCN1CCN(C(=O)c2nc3sccn3c2-c2cccc(C#N)c2)CC1 | > 2
O=C(c1ccsc1)N1CCC(Oc2ccccc2)C1 (stereo not given) | 0.667
COc1cccc(CN2CCC3(CC2)OCCN(C)C3=O)c1 | > 2
N#Cc1ccc(CN2CCC(N3Cc4cccn4C3=O)CC2)cc1 | > 2
Cc1cc(F)ccc1OC1CN(Cc2ccc(C#N)cc2)C1 | 0.59
CN(CC1CCOC1)C(=O)Nc1ccccc1 (stereo not given) | > 2
CCOc1cc(=O)n2c(c1C(=O)Nc1ccc(S(N)(=O)=O)cc1)CCCC2 | > 2
COc1ccc(C(=O)N2C[C@@H](CO)[C@H](N(C)C)C2)cc1 | > 2
COc1cccc(-c2c(C(=O)NC3CC3)nc3sccn23)c1 | > 2

Compound | half-life [h]
N#Cc1cccc(CN2CCOC[C@H](O)C2)c1 | 0.852
COc1ccccc1-c1[nH]nc2ncc(-c3cccc(F)c3)nc12 | > 2
O=C(O)c1ccc(CN2CC(COc3ccccc3)C3(C2)CN(c2ccccc2)C3)cc1 (stereo not given) | > 2
N#Cc1ccc(CN2C[C@@H](CO)[C@H](c3ccncc3)C2)cc1 | 1.78
O=C(N1CCN([S+](=O)([O-])c2ccccc2)CC1)N1CC2CC(C1)[C@H]1CCCC(=O)N1C2 (stereo not given in full) | > 2
CCN1CCN(C(=O)Cc2cccn2-c2ccc(F)cc2)CC1 | > 2
Cc1nnc([C@H]2CCN(Cc3ccc(C#N)cc3)C2)o1 | > 2
COc1cccc(-c2cn3c(n2)N(C(=O)c2ccco2)CCC3)c1 | 0.993
CCOCCOC1CCN(C(=O)Nc2ccccc2)CC1 | > 2
Fc1cccc(Nc2ncc(-c3cccnc3)c3c2OCC3)c1 | 1.28
N#Cc1ccnc(-c2nnc3ccc(NCc4cnccn4)nn23)c1 | > 2
COc1cccc(-c2c(C(=O)N3CCCCC3)nc3sccn23)c1 | 1.9
N#Cc1cccc(-c2c(C(=O)NC3CC3)nc3sccn23)c1 | 1.59
COc1ccc(C(=O)N2CCC3(CCC3OC)CC2)cc1 (stereo not given) | 1.17
COc1cccc(-c2c(C(=O)Nc3ccc(C)cc3)nc3sccn23)c1 | 1.55
CN(Cc1cccc(F)c1)C1CCOc2ccccc21 (stereo not given) | 0.143
C[C@@]1(O)CCN(Cc2ccc(C#N)cc2)C[C@H]1N1CCCC1 | > 2
O=C(c1cccs1)N1CCC(Oc2ccccc2)C1 (stereo not given) | 0.638
CN1c2cc(C(=O)Nc3ccc(C#N)cc3)ccc2C(=O)N2CCCCC21 (stereo not given) | > 2
COC(=O)[C@@H]1Cc2ncn(C)c2CN1C(=O)c1ccc(C#N)cc1 | > 2
N#Cc1ccc(CN2CCC3(C2)NC(=O)c2ccccc2O3)cc1 (stereo not given) | > 2
COCCNc1nc(N)nc2c1CCN(C(=O)c1cscn1)CC2 | > 2
COc1ccc(CN2CC(Oc3ccc(OC)cc3)C2)cc1 | > 2
Cc1nn2c(c1-c1ccccc1Oc1ccccc1)N(Cc1ccc(C(=O)O)cc1)CCC2 | > 2
CC(=O)N1CCC(Cc2ccc(C(=O)NC3CC3)cc2)CC1 | 1.33
CCN1CCN(C(=O)c2nc3sccn3c2-c2cccc(OC)c2)CC1 | > 2
O=C(O)c1ccc(CN2CCOC[C@H]2c2ncc(-c3ccc(F)cc3)[nH]2)cc1 | > 2

Compound | half-life [h]
Cc1ccc(-c2noc([C@@H]3Cc4nc[nH]c4CN3Cc3cccc(C#N)c3)n2)cc1 | 1.06
COCCNC(=O)c1nc2sccn2c1-c1cccc(OC)c1 | > 2
CCN1CCN(C(=O)C2Cn3cccc3C(=O)N2CC(C)C)CC1 (stereo not given) | > 2
COc1ccc(CN2CCC(N3CCNC3=O)CC2)cc1 | > 2
COc1ccc(C(=O)N2CCCOCCNC(=O)CC2)cc1 | 1.17
O=C(O)c1ccc(-c2ccc(N3CCCCCC3)nc2)cc1 | > 2
O=C(c1ccoc1)N1CCC(Oc2ccccc2)C1 (stereo not given) | > 2
N#Cc1cccc(-c2cn3c(n2)N(C(=O)c2cccs2)CCC3)c1 | > 2
O=c1c2nc(Nc3cccc(F)c3)ccc2ncn1-c1cccnc1 | 1.61
O=C(c1ccc(-c2ncc3cnc(-c4cccc(F)c4)cn23)cc1)N1CCc2cccnc21 | 0.288
O=C1COCCN1c1cc(-c2cccc(F)c2)cn2cncc12 | > 2
COc1cccc(CN2CC[C@H](c3nnc(-c4ccco4)o3)C2)c1 | 1.97
Cc1cc2cc(-c3c(C)noc3C)nc(Nc3cccc(F)c3)c2o1 | 0.137
CC(C)(C)c1coc([C@@H]2COCCN2Cc2ccc(C(=O)O)cc2)n1 | 1.88
COCCOC1CCN(C(=O)Nc2ccccc2)CC1 | > 2
N#Cc1cncc(N2CC3CCC(C2)N3CC(F)(F)F)c1 | > 2
N#Cc1ccc(C(=O)N2CCOC[C@H](Oc3cnccn3)C2)cc1 | > 2
Cc1noc(-c2cn(C3CCN(C(=O)c4ccccc4)C3)nn2)n1 (stereo not given) | > 2
CC(=O)N1CCC(Cc2ccc(C(=O)O)cc2)CC1 | > 2
COc1ccc(CN2CC[C@@](C)(O)[C@H](N3CCCC3)C2)cc1 | > 2
Cc1ccccc1-c1[nH]nc2ncc(-c3cccc(F)c3)nc12 | 0.817
N#Cc1ccc(CN2CCC3(COc4ccccc4C(=O)N3)C2)cc1 (stereo not given) | 0.64
N#Cc1ccc(CN2CC(Oc3ccc(F)c(F)c3)C2)cc1 | 1.19
Cn1cnc2ccc(Nc3cccc(F)c3)nc2c1=O | 1.92
CCOCCOC1CCN(C(=O)Nc2cccc(F)c2)CC1 | > 2
Cc1cc(OC2CN(Cc3ccc(C#N)cc3)C2)ccc1F | 0.73
COc1ccccc1CN1CCC2(CC1)CC(O)CCO2 (stereo not given) | > 2

Compound | half-life [h]
COc1ccc(CN2CCC(N3CCOC3=O)CC2)cc1 | > 2
Fc1cccc(Nc2ncc(-c3cncnc3)c3c2OCC3)c1 | > 2
CC(C)CN1C(=O)c2cccn2CC1C(=O)N1CCN(C)CC1 (stereo not given) | 1.79
Cc1noc(-c2cn(C3CCN(C(=O)c4cccc(F)c4)C3)nn2)n1 (stereo not given) | > 2
N#Cc1cccc(CN2C[C@@H](CO)[C@H](c3ccccn3)C2)c1 | 0.957
COc1ccc(CN2CC(Oc3ccc(F)cc3F)C2)cc1 | 0.605
CN(CC1CCOC1)C(=O)Nc1cccc(F)c1 (stereo not given) | > 2
COc1ccc(OC2CN(Cc3ccc(C#N)cc3)C2)cc1 | > 2
Fc1cccc(-c2cnc(Nc3cccnc3)c3c2CCO3)c1 | > 2
COCCOC1CCN(C(=O)Nc2cccc(F)c2)CC1 | > 2
COc1ccc(CN2CC[C@H](c3nnc(C)o3)C2)cc1 | > 2
O=C(NCCCn1ccnc1)c1ccc(-c2ncc3cnc(-c4cccc(F)c4)cn23)cc1 | 0.847
O=C(c1ccncc1)N1CCC(Oc2cccc(F)c2)C1 (stereo not given) | > 2
O=C(NCCc1cnc[nH]1)c1ccc(-c2ncc3cnc(-c4cccc(F)c4)cn23)cc1 | 0.248
O=C(O)c1ccc(-c2ncc3cnc(-c4cccc(F)c4)cn23)cc1 | > 2
O=C(c1cccc(F)c1)N1CCC(Oc2cccnc2)C1 (stereo not given) | > 2
N#Cc1cccc(-c2cn3c(n2)N(C(=O)c2ccco2)CCC3)c1 | 0.612
COc1cccc(-c2cn3c(n2)N(C(=O)c2cccs2)CCC3)c1 | > 2
COc1cccc(-c2c(C(=O)N3CCOCC3)nc3sccn23)c1 | > 2
N#Cc1cccc(CN2CC(COc3ccccc3)C3(C2)CN(c2ccccc2)C3)c1 (stereo not given) | 0.693
N#Cc1cccc(-c2cn3c(n2)N(C(=O)c2ccoc2)CCC3)c1 | > 2
COCCNC(=O)c1nc2sccn2c1-c1cccc(C#N)c1 | > 2
Fc1cccc(-c2cnc(Nc3cncnc3)c3c2CCO3)c1 | 0.16
CNC(=O)[C@@H]1CN(C(=O)c2cccc(C#N)c2)C[C@H]1COC | 1.44
